# From patent publication US20260078105A1, “Novel Aminocarboxymuconate Semialdehyde Decarboxylase Inhibitors” (OrsoBio, Inc., priority 2023, published 2026)
# Target: T1, ACMSD (Mus musculus, UniProt Q8R519)
# T1 construct: endogenous in cells; host or cells: primary mouse hepatocytes (frozen, commercial)
# Test: Quinolinic acid (QA) levels in primary mouse hepatocytes by LC-MS/MS, as indicator of ACMSD inhibition
# Assay type: cell-based
# Details: 3 μM compound, six hours, 500 μM tryptophan, ratio of QA formed with compound versus wells with no compound (DMSO)
# Description: Frozen primary mouse hepatocytes were thawed as per manufacturer's instructions and seeded at a density of 300,000 cells/well of a 6-well plate. After resting for a few hours, the cells were incubated with 3 μM of compound resuspended in DMSO in serum-free William's E media supplemented with 500 μM of tryptophan for six hours. After six hours, the cells were washed with phosphate buffer saline (PBS) and harvested in pre-cooled crashing solution (acetonitrile:methanol:water (40%:40%:20% w/w)) containing internal standard (telmisartan and/or verapamil). Ammonium bicarbonate (15%; 30 μL) was added to the lysates, incubated on dry ice for 10 min, centrifuged for 10 min at 14000 rpm and QA levels were quantified using optimized LC-MS/MS methods using an Atlantis, T3 3 μm, 150×4.6 mm column, and 0.1% formic acid in water and 0.2% formic acid in methanol as mobile phase A and B, respectively. The results are shown in Table 1 as a ratio of the amount of QA formed with compound versus the amount of QA in wells with no compound (DMSO). ACMSD is at the junction of the metabolic pathway of tryptophan. Increased QA levels or decreased PA levels would both be indicative of inhibition of ACMSD. When mouse hepatocytes are treated with the compounds of the invention, increased QA levels are observed and are therefore inhibitors of ACMSD.
# T1 sequence (Q8R519 whole entry): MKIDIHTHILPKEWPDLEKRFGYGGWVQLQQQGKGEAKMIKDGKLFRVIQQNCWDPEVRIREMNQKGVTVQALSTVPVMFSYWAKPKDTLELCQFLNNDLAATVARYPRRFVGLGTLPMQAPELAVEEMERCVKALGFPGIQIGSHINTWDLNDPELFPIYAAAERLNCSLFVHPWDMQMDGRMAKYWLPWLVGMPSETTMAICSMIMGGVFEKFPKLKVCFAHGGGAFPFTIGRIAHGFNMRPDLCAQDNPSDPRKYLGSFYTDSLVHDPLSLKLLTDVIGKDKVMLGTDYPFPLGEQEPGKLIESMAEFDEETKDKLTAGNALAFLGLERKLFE
row,Structure (SMILES),Quinolinic acid ratio (Range)
1,"N#Cc1c(SCc2nnn[nH]2)[nH]c(=O)c(Cl)c1-c1cccc(C(=O)Nc2ccccc2)c1 [Compound 123, 3-(6-(((1H-tetrazol-5-yl)methyl)thio)-3-chloro-5-cyano-2-oxo-1,2-dihydropyridin-4-yl)-N-phenylbenzamide]",** (<4 to 6)
2,"N#Cc1c(SCc2nnn[nH]2)[nH]c(=O)c(C(=O)Nc2ccccc2)c1-c1ccc(Cl)cc1 [Compound 124, 6-(((1H-tetrazol-5-yl)methyl)thio)-4-(4-chlorophenyl)-5-cyano-2-oxo-N-phenyl-1,2-dihydropyridine-3-carboxamide]",** (<4 to 6)
3,"N#Cc1c(SCc2nnn[nH]2)[nH]c(=O)c(C(=O)N2CCCC2)c1-c1ccc(Cl)cc1 [Compound 125, 2-(((1H-tetrazol-5-yl)methyl)thio)-4-(4-chlorophenyl)-6-oxo-5-(pyrrolidine-1-carbonyl)-1,6-dihydropyridine-3-carbonitrile]",** (<4 to 6)
4,"N#Cc1c(SCc2nnn[nH]2)[nH]c(=O)c(C(=O)N2CCCC2)c1-c1cccc(-c2ccccc2)c1 [Compound 126, 2-(((1H-tetrazol-5-yl)methyl)thio)-4-([1,1′-biphenyl]-3-yl)-6-oxo-5-(pyrrolidine-1-carbonyl)-1,6-dihydropyridine-3-carbonitrile]",** (<4 to 6)
5,"CNC(=O)c1c(-c2ccc(Cl)cc2)c(C#N)c(SCc2nnn[nH]2)[nH]c1=O [Compound 127, 6-(((1H-tetrazol-5-yl)methyl)thio)-4-(4-chlorophenyl)-5-cyano-N-methyl-2-oxo-1,2-dihydropyridine-3-carboxamide]",* (2 to 4)
6,"O=C(O)c1cccc(CSc2nc(-c3ccccc3)nc(=O)[nH]2)c1 [Compound 128, 3-(((6-oxo-4-phenyl-1,6-dihydro-1,3,5-triazin-2-yl)thio)methyl)benzoic acid]",* (2 to 4)
7,"N#Cc1c(-c2ccccc2)nc(=O)[nH]c1SCC(=O)O [Compound 131, 2-((5-cyano-2-oxo-6-phenyl-2,3-dihydropyrimidin-4-yl)thio)acetic acid]",* (2 to 4)
8,"CC(C)Oc1nc(SCc2nnn[nH]2)[nH]c(=O)n1 [Compound 133, 6-(((1H-tetrazol-5-yl)methyl)thio)-4-isopropoxy-1,3,5-triazin-2(1H)-one]",— (<2)
